{"source": "patent US20260070951A1", "about": "“MICROPAKINE K2 ANTIMICROBIAL POLYPEPTIDE, COMPOSITION COMPRISING IT AND USE FOR TREATING BACTERIAL INFECTIONS” (priority 2022, published 2026)", "assay_in_all_cases": "Inhibition zone test of compositions on Mueller Hinton lawn", "assay_type_in_all_cases": "cell-based", "key": {"B. cereus": {"test_system": "B. cereus", "conditions": "MPK2 200 AU/mL, 24 hours", "procedure": "(§1) Different compositions comprising the MicroPacin K2 polypeptide were prepared in different vehicles: 10% w/v methanol, 10% w/v glycerol, 0.5% w/v polyethylene glycol, and water. In the case of the MicroPacin K2 polypeptide, it was used at a concentration of 200 AU/mL in each composition.\n(§2) A 5 μL aliquot of each of the prepared compositions was taken and added to a plate with Mueller Hinton medium containing the sensitivity indicator bacteria, previously seeded in the form of a lawn. The plates were then incubated for 24 hours, and the antibacterial activity of the compositions was observed according to the appearance and size of the inhibition zone. This test, in turn, was performed under the same conditions with the commercial bacteriocin Nisin as a comparator agent, which is considered a gold standard bacteriocin, for being approved by the FDA (Food and Drug Administration).\n(§3) In this example, the antibacterial effect of compositions comprising the polypeptide MicroPacin K2 and an additional antibacterial agent, including nisin (5,000 AU/mL), ampicillin (0.01 μg/mL), and tetracycline (0.05 μg/mL), is evaluated. The assay was performed using distilled water as the vehicle for the composition. The final concentration of MicroPacin K2 in the compositions evaluated was 200 AU/mL."}, "C. freundii": {"test_system": "C. freundii", "conditions": "MPK2 200 AU/mL, 24 hours", "procedure": "as §1, §2, §3"}, "E. coli DH5α": {"test_system": "E. coli DH5α", "conditions": "MPK2 200 AU/mL, 24 hours", "procedure": "as §1, §2, §3"}, "E. coli O157:H7": {"test_system": "E. coli O157:H7", "conditions": "for Zone of growth inhibition: MPK2 200 AU/mL, 24 hours", "procedure": "as §1, §2, §3"}, "L. monocytogenes": {"test_system": "L. monocytogenes", "conditions": "MPK2 200 AU/mL, 24 hours", "procedure": "as §1, §2, §3"}, "S. aureus": {"test_system": "S. aureus", "conditions": "MPK2 200 AU/mL, 24 hours", "procedure": "as §1, §2, §3"}, "S. saprophyticus": {"test_system": "S. saprophyticus", "conditions": "MPK2 200 AU/mL, 24 hours", "procedure": "as §1, §2, §3"}, "S. sonnei": {"test_system": "S. sonnei", "conditions": "for Zone of growth inhibition: S. sonnei, MPK2 200 AU/mL, 24 hours", "procedure": "as §1, §2, §3"}}, "data": [{"substance": "Nisin [reference compound]", "values": [{"measurement": "Zone of growth inhibition", "setting": "B. cereus; vehicle Glycerol 10%", "result": 9.0, "unit": "mm"}, {"measurement": "Zone of growth inhibition", "setting": "B. cereus; vehicle H2O", "result": 8.0, "unit": "mm"}, {"measurement": "Zone of growth inhibition", "setting": "B. cereus; vehicle Methanol 10%", "result": 8.0, "unit": "mm"}, {"measurement": "Zone of growth inhibition", "setting": "B. cereus; vehicle PEG 0.5%", "result": 9.0, "unit": "mm"}, {"measurement": "Zone of growth inhibition", "setting": "C. freundii; vehicle Glycerol 10%", "result": 8.0, "unit": "mm"}, {"measurement": "Zone of growth inhibition", "setting": "C. freundii; vehicle H2O", "result": 8.0, "unit": "mm"}, {"measurement": "Zone of growth inhibition", "setting": "C. freundii; vehicle Methanol 10%", "result": 8.0, "unit": "mm"}, {"measurement": "Zone of growth inhibition", "setting": "C. freundii; vehicle PEG 0.5%", "result": 7.0, "unit": "mm"}, {"measurement": "Zone of growth inhibition", "setting": "E. coli DH5α; vehicle Glycerol 10%", "result": 8.0, "unit": "mm"}, {"measurement": "Zone of growth inhibition", "setting": "E. coli DH5α; vehicle H2O", "result": 8.0, "unit": "mm"}, {"measurement": "Zone of growth inhibition", "setting": "E. coli DH5α; vehicle Methanol 10%", "result": 8.0, "unit": "mm"}, {"measurement": "Zone of growth inhibition", "setting": "E. coli DH5α; vehicle PEG 0.5%", "result": 8.0, "unit": "mm"}, {"measurement": "Inhibition of growth (inhibition halo)", "setting": "E. coli O157:H7; compositions", "result": "not able to inhibit their growth"}, {"measurement": "Zone of growth inhibition", "setting": "E. coli O157:H7; vehicle Glycerol 10%", "result": 0, "unit": "mm"}, {"measurement": "Zone of growth inhibition", "setting": "E. coli O157:H7; vehicle H2O", "result": 0, "unit": "mm"}, {"measurement": "Zone of growth inhibition", "setting": "E. coli O157:H7; vehicle Methanol 10%", "result": 0, "unit": "mm"}, {"measurement": "Zone of growth inhibition", "setting": "E. coli O157:H7; vehicle PEG 0.5%", "result": 0, "unit": "mm"}, {"measurement": "Zone of growth inhibition", "setting": "L. monocytogenes; vehicle Glycerol 10%", "result": 9.0, "unit": "mm"}, {"measurement": "Zone of growth inhibition", "setting": "L. monocytogenes; vehicle H2O", "result": 9.0, "unit": "mm"}, {"measurement": "Zone of growth inhibition", "setting": "L. monocytogenes; vehicle Methanol 10%", "result": 9.0, "unit": "mm"}, {"measurement": "Zone of growth inhibition", "setting": "L. monocytogenes; vehicle PEG 0.5%", "result": 9.0, "unit": "mm"}, {"measurement": "Zone of growth inhibition", "setting": "S. aureus; vehicle Glycerol 10%", "result": 9.0, "unit": "mm"}, {"measurement": "Zone of growth inhibition", "setting": "S. aureus; vehicle H2O", "result": 9.0, "unit": "mm"}, {"measurement": "Zone of growth inhibition", "setting": "S. aureus; vehicle Methanol 10%", "result": 8.0, "unit": "mm"}, {"measurement": "Zone of growth inhibition", "setting": "S. aureus; vehicle PEG 0.5%", "result": 8.0, "unit": "mm"}, {"measurement": "Zone of growth inhibition", "setting": "S. saprophyticus; vehicle Glycerol 10%", "result": 10.0, "unit": "mm"}, {"measurement": "Zone of growth inhibition", "setting": "S. saprophyticus; vehicle H2O", "result": 10.0, "unit": "mm"}, {"measurement": "Zone of growth inhibition", "setting": "S. saprophyticus; vehicle Methanol 10%", "result": 10.0, "unit": "mm"}, {"measurement": "Zone of growth inhibition", "setting": "S. saprophyticus; vehicle PEG 0.5%", "result": 9.0, "unit": "mm"}, {"measurement": "Zone of growth inhibition", "setting": "S. sonnei; vehicle Glycerol 10%", "result": 0, "unit": "mm"}, {"measurement": "Zone of growth inhibition", "setting": "S. sonnei; vehicle H2O", "result": 0, "unit": "mm"}, {"measurement": "Zone of growth inhibition", "setting": "S. sonnei; vehicle Methanol 10%", "result": 0, "unit": "mm"}, {"measurement": "Zone of growth inhibition", "setting": "S. sonnei; vehicle PEG 0.5%", "result": 0, "unit": "mm"}, {"measurement": "Inhibition of growth (inhibition halo)", "setting": "S. sonnei; Shigella sonnei, compositions", "result": "not able to inhibit their growth"}]}]}
